Data as given in patent US20170204187A1, “METHODS OF TREATING AND PREVENTING CANCER DRUG RESISTANCE” (Genentech, Inc., priority 2014, published 2017).
Entries after “also recorded” stand apart in the source; their conditions may differ.

Assays:
B-raf-mutant melanomas = test: Immunoblot of MAPK reactivation in FGF2-mediated rescue (FIG. 7A); type: cell-based
Text: FIG. 7 A-D.|Reactivation of MEK/ERK downstream of B-raf is a core mechanism of resistance in B-raf-mutant melanomas. A, MAPK signalling is required for FGF2-mediated resistance as shown by immunoblots. […] C, A synthetic lethal chemical screen was utilized to identify signalling pathways mediating resistance to PLX4032 in 12 acquired-resistance melanoma cell lines. […] D, Examples of the synthetic lethal chemical screen shown in FIG. 7C on specific cell lines.

[1] = test system: HER2+ breast cancer cell lines; test: FGF rescue screen, breast cancer lines (FIG. 15A); type: cell-based; settings: 10 HER2+ breast cancer cell lines
Protocol: (§1) FIG. 15 A-C.|Screen of 10 melanoma cell lines and 10 breast cancer lines was performed to determine the role of FGF signalling in drug resistance. […] C, Summary of FGF receptors, their subfamily, and their ligands.
(§2) FGF signalling and resistance was studied in 10 HER2+ breast cancer cell lines and in 10 B-raf mutant melanoma cell lines (FIG. 15). 7 of the 10 HER2+ breast cancer cell lines were rescued by FGF2 (FIG. 15A). 8 of the 10 B-raf mutant melanoma cell lines were rescued by FGF2 (FIG. 15B). Subsequent analysis determined that 50-70% of the melanoma lines with the V600E mutation were rescued by FGF2 (n=30).

624 MEL cells = test: Immunoblot of MAPK and PI3K pathway reactivation by secreted growth factors (FIG. 1D); type: cell-based; settings: 5 μM PLX4032 for 24 hours; 50 ng·mL factor for 10 minutes
Protocol: (§3) FIG. 1A-D.|Factors secreted by tumor cells and/or the tumor microenvironment contribute to drug resistance through activation of cell-surface receptors. […] D, Secreted growth factors which promote resistance to PLX4032 reactivate MAPK and PI3K pathways. Activation of MAPK by FGF2, MAPK and AKT by HGF and AKT by NRG1 and SCF are shown in 624 MEL cells in the presence of PLX4032. Treatments were 5 μM PLX4032 for 24 hours and 50 ng·mL FGF2, HGF, NRGB1, or SCF for 10 minutes.

[2] = test system: B-raf mutant melanoma cell lines; test: Secreted factor / FGF rescue screen, melanoma lines (FIG. 1, FIG. 15B); type: cell-based; settings: for rescue of tumor cells from B-raf and MEK antagonists: melanoma cell line, FIG. 1B
Protocol: as §3, §1, §2

LOX-IMVI cells = test: Secreted factor rescue screen on LOX-IMVI (FIG. 23); type: cell-based
Text: FIG. 23 A-C.|Vemurafenib resistant and sensitive cell lines can be used to determine and anticipate paths to resistance in patients. LOX-IMVI cells were rescued by FGF1, FGF2, EGF, and HGF in the screen. A, LOX-IMVI VemR cells were re-sensitized to PLX4032 by FGFR inhibition. B, Dual resistant LOX-IMVI VemR/FGFRi (i.e., resistant to vemurafenib and FGFR inhibitor) cells were re-sensitized to PLX4032 by EGFR inhibition. C, Triple resistant LOX-IMVI VemR/FGFRi/Erlotinib cells were re-sensitized to PLX4032 by MET inhibition.

[3] = test system: HER2+ breast cancer cells; test: Immunoblot of downstream signalling after FGF2 exposure (FIG. 16); type: cell-based; settings: FGF2 50 ng/mL for 10 minutes or 24 hours, with or without lapatinib 2 μM
Protocol: FIG. 16 A-B.|FGF2 reactivates key signalling pathways to promote resistance and stimulates sustained activation of downstream signaling. A, An immunoblot of cells exposed to FGF2 for 10 min compared to cells absent exposure. B, An immunoblot of cells exposed to FGF2 for 24 hrs compared to cells absent FGF2 exposure.
Furthermore, it was determined that FGF2 reactivates key signalling pathways to promote resistance (FIG. 16). This was shown in a cell assay wherein HER2+ breast cancer cells were exposed to FGF2 (50 ng·mL) for 10 minutes in the presence or absence of lapatinib (2 μM) (FIG. 16A). Similarly, an assay was performed wherein HER2+ breast cancer cells were exposed to FGF2 (50 ng/mL) for 24 hours in the presence or absence of lapatinib (2 μM) (FIG. 16B).

LOX-IMVI VemR cell line = test: LOX-IMVI VemR resensitization to vemurafenib by FGFR antagonists (FIG. 2B); type: cell-based; settings: for effect on the cell line / resensitization to vemurafenib: FGFR antagonist 1 μM in combination with 5 μM vemurafenib
Protocol: FIG. 2A-E.|A cell line (“LOX-IMVI VemR”) was engineered to be resistant to vemurafienib. A, An image of an immunoblot of 11 cell lines probed for FGFR1 expression. B, The LOX-IMVI VemR cell line is not affected by 5 μM vemurafenib (i.e., “PLX”) as shown in the DMSO plot; however, the cell line is affected by 5 μM vemurafenib in combination with an antagonist of FGFR signalling (i.e., BGJ398, PD173074, and AP24534).
The Lox-IMVI VemR cell line was used as the model of acquired resistance in B-raf mutant melanoma. 11 cell lines were tested for FGFR1 expression using a Western blot. Of the cell lines tested, FGFR1 expression was detected in the LOX-IMVI (vemurafenib sensitive) and LOX-IMVI VemR (vemurafenib resistant) lines (FIG. 2A).

LOX-IMVI VemR cells = test: In vitro combination study vemurafenib + BGJ398, Vem-resistant cell outgrowth (FIG. 3A); type: cell-based
LOX-IMVI tumors = test: In vivo tumor volume, parental vemurafenib sensitive tumors; settings: for tumor volume: vemurafenib 25 mg/kg
Protocol: (§4) FIG. 4A-C.|The LOX-IMVI VemR cell line has FGFR-mediated vemurafenib resistance in vivo. A, LOX-IMVI cells (parental cell line) are sensitive to vemurafenib.
(§5) The vemurafenib resistance and recovery of the LOX-IMVI VemR cell line was also studied in vivo. The tumor volume (mm^3) was measured in LOX-IMVI (parental, vemurafenib sensitive) tumors and in LOX-IMVI VemR (vemurafenib resistant) tumors in the presence of vemurafenib, BGJ398, or vemurafenib and BGJ398 ([…]).

B-raf mutant melanoma = settings: cited from earlier work
[4] = test system: 624 melanoma cells made resistant to PLX4032; test: pAKT in PLX4032-resistant 624 melanoma cells (FIG. 8B-C); type: cell-based; settings: treated with PLX4032
Protocol: FIG. 8 A-C.|Activation of PI3K represents an alternative mechanism of B-raf-mutant melanomas. A, A synthetic lethal chemical screen identified PI3K-dependent resistance to PLX4032. […] Co-treatment with a […] was needed to growth arrest the 624 ml VemR cells in the presence of PLX4032.

LOX-IMVI VemR tumors = test: In vivo tumor volume, vemurafenib resistant tumors; settings: for tumor volume / efficacy: combination treatment of vemurafenib and BGJ398
Protocol: as §4, §5

SK-MEL-24 cell line = test: In vitro combination study vemurafenib + BGJ398 (FIG. 3A); type: cell-based; settings: PLX4032 combined with FGFR antagonist
Text: (§6) FIG. 3A-B.|FGFR-inhibition prevents Vem-resistant cell outgrowth. […] B, Expression patterns of select proteins are shown on West Blots in the presence of vemurafenib (PLX4032), an antagonist of FGFR signalling (NV-BGJ398), and/or FGF2.

SK-MEL-3 cell line = test: as above; type: cell-based; settings: PLX4032 combined with FGFR antagonist
Text: as §6

HCC1569 cells = test: Innate resistance model, sensitization to lapatinib (FIG. 20A); type: cell-based; settings: 100 nM BGJ398 with 5 μM lapatinib
Protocol: (§7) FIG. 20 A-C.|HER2+ breast cancer models of innate resistance. A, FGFR inhibitor (BGJ398) sensitizes HCC1569 cells to lapatinib. B, FGFR inhibitor (BGJ398) sensitizes MDA-MB-453 cells to lapatinib.
(§8) The innate resistant HER2+ breast cancer cell lines were HCC1569 and MDA-MB-453. HC1569 expressed FGFR2 (detected by Western blot) and secreted FGF2 (detected by ELISA). FGFR ECD chimeras from the HCC1569 line were sensitized to lapatinib. Furthermore, HC1569 cells that were treated with FGFR inhibitor(s) sensitized the cells to lapatinib. […] MDA-MB-453 cells that were treated with FGFR inhibitor(s) sensitized the cells to lapatinib.
(§9) HCC1569 and MDA-MB-453 cells were treated with 100 nM afatinib, 100 nM crizotinib, or 100 nM BGJ398 in the presence or absence of 5 μM lapatinib (FIGS. 20A and 20B).

[5] = test system: HER2+ breast cancer cell lines (AU565, BT-474, HCC1954, SK-BR-3, and UACC-893); test: Block of FGF2 rescue in lapatinib/FGF2 treated cells (FIG. 19A); type: cell-based; settings: cells treated with lapatinib and FGF2, then FGFR pan inhibitor
Protocol: FIG. 19 A-D.|FGFR4 mediates FGF2 rescue in HER2+ breast cancer. A, Percent rescue of cells treated with lapatinib and FGF2. B, Immunoblot of cells treated with lapatinib and FGF2. C, TCGA breast cancer samples (n=913) show high […] levels in breast cancer. D, HER2+ breast cancer cells are enriched for high FGFR4.
HER2+ breast cancer cell lines (AU565, BT-474, HCC1954, SK-BR-3, and UACC-893) were treated with lapatinib and FGF2. Thereafter, the cells were either exposed to siRNA targeting FGFR1, FGFR2, FGFR3, or FGFR4 or exposed to the FGFR pan inhibitor BGJ398 (FIG. 19A). […] Immunoblots were also performed to detect IP/pTyr/IB:FGFR4, FGFR4, pERK, ERK, and actin (control) in cells treated with lapatinib in the presence and absence of FGF2 (FIG. 19B).

[6] = test system: HER2+ breast cancer models of innate resistance; test: Tumor volume, lapatinib + FGFR inhibitor (FIG. 20C); type: in vivo; settings: combination treatment of lapatinib and BGJ398
MDA-MB-453 cells = test: Innate resistance model, sensitization to lapatinib (FIG. 20B); type: cell-based; settings: 100 nM BGJ398 with 5 μM lapatinib
Protocol: as §7, §8, §9

With “FGF2: secreted growth factor, FGFR ligand, promotes resistance” the “MAPK signalling in the presence of PLX4032” value (B-raf-mutant melanomas) was “activates MEK and ERK”, the “cell lines rescued by FGF2” value [1] was 7 of the 10 and the “pathway activated in the presence of PLX4032” value (“pathway activated” for short) (624 MEL cells) was “MAPK”. The “cell lines rescued by FGF2” value ([2]; 10 B-raf mutant melanoma cell lines) was 8 of the 10, the “rescue of tumor cells from B-raf and MEK antagonists” value [2] was “most broadly and potently” and the “melanoma lines with the V600E mutation rescued by FGF2” value ([2]; subsequent analysis, n=30) was 50-70%. The “rescue in the secreted factor screen” value (LOX-IMVI cells) was “rescued” and the downstream signalling [3] was “sustained activation of downstream signalling”.
In the case of “SCF: secreted growth factor which promotes resistance to PLX4032”, the “pathway activated” value (624 MEL cells) is reported as “AKT”.
In the case of `CCN(CC)CCCCNc1ncc2cc(-c3cc(OC)cc(OC)c3)c(NC(=O)NC(C)(C)C)nc2n1` [PD173074, N-[2-[[4-(diethylamino)butyl]amino]-6-(3,5-dimethoxyphenyl)pyrido[2,3-d]pyrimidin-7-yl]-N′-(1,1-dimethylethyl)-urea], the “effect on the cell line / resensitization to vemurafenib” value (LOX-IMVI VemR cell line) is reported as “resensitized to vemurafenib; also recorded: affected”.
For `CCCS(=O)(=O)Nc1ccc(F)c(C(=O)c2c[nH]c3ncc(-c4ccc(Cl)cc4)cc23)c1F` [vemurafenib, N-(3-{[5-(4-chlorophenyl)-1H-pyrrolo[2,3-b]pyridin-3-yl]carbonyl}-2,4-difluorophenyl)propane-1-sulfonamide], the response to treatment (LOX-IMVI VemR cells; single agent alone) is given as “minimal response”, the tumor volume (LOX-IMVI tumors; BID alone) is given as “tumor volume decreased; also recorded: sensitive” and the “time to relapse following maximal response” value (B-raf mutant melanoma; majority of patients, residual tumor) is given as at most 1 year. For the same molecule, the patients who respond (B-raf mutant melanoma; patients) was “majority”, the “patients with tumor progression early in therapy” value (B-raf mutant melanoma; patients) was 10% and the pAKT [4] was “increase in pAKT”. For the same molecule, the “effect on the cell line” value (LOX-IMVI VemR cell line; 5 μM vemurafenib (PLX) alone, DMSO plot) was “not affected” and the tumor volume (LOX-IMVI VemR tumors; vemurafenib alone) was “did not show a decrease in tumor volume”.
For `CCN1CCN(c2ccc(Nc3cc(N(C)C(=O)Nc4c(Cl)c(OC)cc(OC)c4Cl)ncn3)cc2)CC1` [BGJ398, 3-(2,6-Dichloro-3,5-dimethoxy-phenyl)-1-{6-[4-(4-ethyl-piperazin-1-yl)-phenylamino]-pyrimidin-4-yl}-1-methyl-urea], the response to treatment (LOX-IMVI VemR cells; combination treatment of vemurafenib and BGJ398) was “high response”, the response to treatment (LOX-IMVI VemR cells; single agent alone) was “minimal response” and the “re-emergence of tumors following the end of treatment” value (LOX-IMVI tumors; co-treatment with BGJ398 and vemurafenib) was “can be prevented”. The tumor volume (LOX-IMVI tumors; BID and BGJ398 15 mg/kg, QD) was “tumor volume decreased”, the “response to PLX4032” value (SK-MEL-24 cell line) was “augmented response” and the “response to PLX4032” value (SK-MEL-3 cell line) was “augmented response”. The sensitization to lapatinib (HCC1569 cells) was “rescue the cell lines from drug resistance; also recorded: sensitizes”, the “percent rescue from acquired resistance to lapatinib and FGF2” value [5] was “greatest percent rescue” and the “effect on the cell line / resensitization to vemurafenib” value (LOX-IMVI VemR cell line) was “resensitized to vemurafenib; also recorded: affected”. The tumor volume [6] was “decrease tumor volume; also recorded: Tumor volume decreases”, the “tumor volume / efficacy” value (LOX-IMVI VemR tumors) was “did show a decrease in tumor volume” and the “tumor volume / efficacy” value (LOX-IMVI VemR tumors; listed as NVP-BGJ398) was “potent efficacy”. For the same molecule, the sensitization to lapatinib (MDA-MB-453 cells) was “rescue the cell lines from drug resistance; also recorded: sensitizes”.
In the case of “HGF: secreted growth factor which promotes resistance to PLX4032”, the “pathway activated” value (624 MEL cells) is reported as “MAPK and AKT”, the “rescue of tumor cells from B-raf and MEK antagonists” value [2] is reported as “most broadly and potently” and the “rescue in the secreted factor screen” value (LOX-IMVI cells) is reported as “rescued”.
In the case of `Cc1ccc(C(=O)Nc2ccc(CN3CCN(C)CC3)c(C(F)(F)F)c2)cc1C#Cc1cnc2cccnn12` [AP24534], the “effect on the cell line / resensitization to vemurafenib” value (LOX-IMVI VemR cell line) is reported as “resensitized to vemurafenib; also recorded: affected”.
With FGF1: secreted factor, FGFR ligand the “rescue in the secreted factor screen” value (LOX-IMVI cells) was “rescued”.
